# Experiment: Body composition by GE Prodigy DEXA scan, Example 1
# Format: in vivo, dog
# Settings: for % Fat, Mean / BMC, Mean / Lean Mass, Mean / Total Mass, Mean: Table 14; for BMC-Change / Lean Mass-Change / Total Mass-Change / BMC-Final / BMC-Initial / Lean Mass-Final / Lean Mass-Initial / Total Mass-Final / Total Mass-Initial: Table 20, mean ± SEM; for BMC-Change / Lean Mass-Change / Total Mass-Change: beginning to completion of study
# Description: Forty Labrador Retrievers were divided into two equal groups of twenty (11 males, 9 females) based on gender, body weight (“BW”), genetics, and lean mass and fed a low L-carnitine basal diet for a 90 day feeding period. The experimental dogs were fed the low L-carnitine basal for 10 days prior to the start of the study. Twenty of the Labs received 250 mg/day of L-carnitine (batch D22312) and 3.75 g of sugar and twenty of the Labs received 4 g/d of sugar. The dogs were scanned with a GE Prodigy DEXA system immediately prior to beginning of the study and the determined lean mass was utilized as a key component for helping assort the dogs equally between the control and L-carnitine group. A serum sample was obtained from each dog to determine a baseline value for blood biomarkers that were used to evaluate muscle damage and antioxidant status. The L-carnitine and control performance dogs were put through a weekly running program consisting of running sprint type shorter runs of higher intensity twice weekly (1200 yds/session increasing to 2400 yds/session over 10 wk period) and running endurance longer runs one time per wk (increasing from 5 miles/session to 10 miles per session over a 10 wk period). Each performance dog also wore the Actical activity monitor during the last endurance run. The dogs were put through a 15 mile run that included mud, water, tall grass, and swimming. The dogs were timed when they completed the course. The dogs were encouraged by kennel staff that rode along in a 4 wheel all terrain type vehicle during all of the endurance runs. […] Immediately following the 15 mile endurance run, each dog was placed in a kennel and evaluated for recovery time for body temperature (every 15 minutes for 2 hr) and heart rate (every 2 minutes for 14 minutes). Twenty four hours after test dogs ran the last 15 endurance run, post-run serum samples were taken to evaluate biomarkers for muscle damage and antioxidant status. Each test dog was also scanned with the GE Prodigy DEXA to determine body composition change that occurred during the course of the 13 wk study. Body Scans: Each dog was scanned for body composition with a GE Prodigy Pro Fan beam instrument during the week prior to the beginning of the 90 day study and the first working day following the last endurance run. Body composition values were determined for % lean mass, % fat mass, and % bone ash for each dog. The difference in body composition was determined by comparing the beginning scan and last scan for each test dog. The final scans were completed 24 hr post run.
compound,measurement,setting,value
C[N+](C)(C)C[C@H](O)CC(=O)[O-] [L-carnitine],Lean mass over the study,"Ex.1, 250 mg/d, DEXA, initial vs final, either group",No increase in lean mass
same,Increase in % fat mass,"Ex.1, 250 mg/d, females, beginning to end of study, vs 8.9% control females (p=0.22)",4.2%
same,Increase in fat,"Ex.1, 250 mg/d, females, over 90 day study, unpaired t-test (Table 20), vs 9% control females (p=0.30)",5.8%
same,Fat mass at the end of the study,"Ex.1, 250 mg/d, females, vs 11.1 lbs control (p=0.29)",8.9 lbs
same,BMC Least Sq Mean,"F, Final",820.2 g
same,Fat Least Sq Mean,"F, Final",8.892 lbs
same,Fat Percentage Least Sq Mean,"F, Final",16.32
same,Lean Mass Least Sq Mean,"F, Final",45.62 lbs
same,Total Mass Least Sq Mean,"F, Final",54.51 lbs
same,BMC Least Sq Mean,"F, Initial",766.5 g
same,Fat Least Sq Mean,"F, Initial",5.631 lbs
same,Fat Percentage Least Sq Mean,"F, Initial",11.03
same,Lean Mass Least Sq Mean,"F, Initial",45.83 lbs
same,Total Mass Least Sq Mean,"F, Initial",51.14 lbs
same,BMC Least Sq Mean,Final,861.6 g
same,Fat Least Sq Mean,Final,8.558 lbs
same,Fat Percentage Least Sq Mean,Final,14.52
same,Lean Mass Least Sq Mean,Final,49.83 lbs
same,Total Mass Least Sq Mean,Final,58.39 lbs
same,BMC Least Sq Mean,Initial,784.2 g
same,Fat Least Sq Mean,Initial,5.779 lbs
same,Fat Percentage Least Sq Mean,Initial,10.31
same,Lean Mass Least Sq Mean,Initial,49.87 lbs
same,Total Mass Least Sq Mean,Initial,55.49 lbs
same,BMC Least Sq Mean,"M, Final",903 g
same,Fat Least Sq Mean,"M, Final",8.225 lbs
same,Fat Percentage Least Sq Mean,"M, Final",12.73
same,Lean Mass Least Sq Mean,"M, Final",54.04 lbs
same,Total Mass Least Sq Mean,"M, Final",62.27 lbs
same,BMC Least Sq Mean,"M, Initial",801.8 g
same,Fat Least Sq Mean,"M, Initial",5.927 lbs
same,Fat Percentage Least Sq Mean,"M, Initial",9.582
same,Lean Mass Least Sq Mean,"M, Initial",53.9 lbs
same,Total Mass Least Sq Mean,"M, Initial",59.83 lbs
same,"% Fat, Mean","Sex F, Final",16.3%
same,"BMC, Mean","Sex F, Final",820 g
same,"Lean Mass, Mean","Sex F, Final",45.6 lb
same,"Total Mass, Mean","Sex F, Final",54.5 lb
same,"% Fat, Mean","Sex F, Initial",12.1%
same,"BMC, Mean","Sex F, Initial",764 g
same,"Lean Mass, Mean","Sex F, Initial",44.7 lb
same,"Total Mass, Mean","Sex F, Initial",50.8 lb
same,"% Fat, Mean","Sex M, Final",12.7%
same,"BMC, Mean","Sex M, Final",903 g
same,"Lean Mass, Mean","Sex M, Final",54.0 lb
same,"Total Mass, Mean","Sex M, Final",62.3 lb
same,"% Fat, Mean","Sex M, Initial",9.6%
same,"BMC, Mean","Sex M, Initial",802 g
same,"Lean Mass, Mean","Sex M, Initial",53.9 lb
same,"Total Mass, Mean","Sex M, Initial",59.8 lb
same,"% Fat, Mean","all dogs, Final",14.3%
same,"BMC, Mean","all dogs, Final",866 g
same,"Lean Mass, Mean","all dogs, Final",50.3 lb
same,"Total Mass, Mean","all dogs, Final",58.8 lb
same,"% Fat, Mean","all dogs, Initial",10.6%
same,"BMC, Mean","all dogs, Initial",787 g
same,"Lean Mass, Mean","all dogs, Initial",50.3 lb
same,"Total Mass, Mean","all dogs, Initial",56.3 lb
same,BMC-Change,all dogs,82 ± 46 n = 20 g
same,Lean Mass-Change,all dogs,0.1 ± 0.3 n = 20 lb
same,Total Mass-Change,all dogs,3.4 ± 0.8 n = 20 lb
same,BMC-Final,all dogs,866 ± 26 n = 20 g
same,BMC-Initial,all dogs,784 ± 44 n = 20 g
same,Lean Mass-Final,all dogs,50.3 ± 1.5 n = 20 lb
same,Lean Mass-Initial,all dogs,50.2 ± 1.5 n = 20 lb
same,Total Mass-Final,all dogs,58.8 ± 1.7 n = 20 lb
same,Total Mass-Initial,all dogs,55.3 ± 1.7 n = 20 lb
same,BMC-Change,♀,58 ± 11 n = 9 g
same,Lean Mass-Change,♀,0 ± 0.5 n = 9 lb
same,Total Mass-Change,♀,4.7 ± 1.5 n = 9 lb
same,BMC-Final,♀,820 ± 19 n = 9 g
same,BMC-Initial,♀,762 ± 18 n = 9 g
same,Lean Mass-Final,♀,45.6 ± 1.7 n = 9 lb
same,Lean Mass-Initial,♀,45.7 ± 1.3 n = 9 lb
same,Total Mass-Final,♀,54.5 ± 1.4 n = 9 lb
same,Total Mass-Initial,♀,49.8 ± 1.1 n = 9 lb
same,BMC-Change,♂,101 ± 84 n = 11 g
same,Lean Mass-Change,♂,0.1 ± 0.5 n = 11 lb
same,Total Mass-Change,♂,2.4 ± 0.6 n = 11 lb
same,BMC-Final,♂,903 ± 42 n = 11 g
same,BMC-Initial,♂,802 ± 80 n = 11 g
same,Lean Mass-Final,♂,54 ± 1.7 n = 11 lb
same,Lean Mass-Initial,♂,53.9 ± 1.8 n = 11 lb
same,Total Mass-Final,♂,62.3 ± 2.6 n = 11 lb
same,Total Mass-Initial,♂,59.8 ± 2.2 n = 11 lb
same,BMC Least Sq Mean,"Treatment * Sex, F",766.5 g
same,Fat Least Sq Mean,"Treatment * Sex, F",7.261 lbs
same,Fat Percentage Least Sq Mean,"Treatment * Sex, F",11.03
same,Lean Mass Least Sq Mean,"Treatment * Sex, F",45.83 lbs
same,Total Mass Least Sq Mean,"Treatment * Sex, F",51.14 lbs
same,BMC Least Sq Mean,"Treatment * Sex, M",801.8 g
same,Fat Least Sq Mean,"Treatment * Sex, M",7.076 lbs
same,Fat Percentage Least Sq Mean,"Treatment * Sex, M",9.582
same,Lean Mass Least Sq Mean,"Treatment * Sex, M",53.9 lbs
same,Total Mass Least Sq Mean,"Treatment * Sex, M",59.83 lbs
same,BMC Least Sq Mean,"Treatment level, all dogs",784.2 g
same,Fat Least Sq Mean,"Treatment level, all dogs",7.169 lbs
same,Fat Percentage Least Sq Mean,"Treatment level, all dogs",10.31
same,Lean Mass Least Sq Mean,"Treatment level, all dogs",49.87 lbs
same,Total Mass Least Sq Mean,"Treatment level, all dogs",55.49 lb
same,"Body mineral content (BMC), mixed model Estimate, term Treatment[L-carnitine]",model term,−22.85
same,"Body mineral content (BMC), mixed model Estimate, term Treatment[L-carnitine] * Sex[F]",model term,37.64
same,"Body mineral content (BMC), mixed model Estimate, term Treatment[L-carnitine] * Sex[F] * Time[Final-Initial]",model term,−17.19
same,"Body mineral content (BMC), mixed model Estimate, term Treatment[L-carnitine] * Time[Final-Initial]",model term,6.762
same,"Fat mass, mixed model Estimate, term Treatment[L-carnitine]",model term,−0.2546
same,"Fat mass, mixed model Estimate, term Treatment[L-carnitine] * Sex[F]",model term,−0.1764
same,"Fat mass, mixed model Estimate, term Treatment[L-carnitine] * Sex[F] * Time[Initial]",model term,0.331
same,"Fat mass, mixed model Estimate, term Treatment[L-carnitine] * Time[Initial]",model term,0.3408
same,"Fat percentage, mixed model Estimate, term Treatment[L-carnitine]",model term,0.1573
same,"Fat percentage, mixed model Estimate, term Treatment[L-carnitine] * Sex[F]",model term,0.281
same,"Fat percentage, mixed model Estimate, term Treatment[L-carnitine] * Sex[F] * Time[Final-Initial]",model term,−0.9515
same,"Fat percentage, mixed model Estimate, term Treatment[L-carnitine] * Time[Final-Initial]",model term,−0.8868
same,"Lean mass, mixed model Estimate, term Treatment[L-carnitine]",model term,−0.3966
same,"Lean mass, mixed model Estimate, term Treatment[L-carnitine] * Sex[F]",model term,0.618
same,"Lean mass, mixed model Estimate, term Treatment[L-carnitine] * Sex[F] * Time[Final-Initial]",model term,0.1808
same,"Lean mass, mixed model Estimate, term Treatment[L-carnitine] * Time[Final-Initial]",model term,−0.234
same,"Total Body Mass, mixed model Estimate, term Treatment[L-carnitine]",model term,−0.3536
same,"Total Body Mass, mixed model Estimate, term Treatment[L-carnitine] * Sex[F]",model term,0.6569
same,"Total Body Mass, mixed model Estimate, term Treatment[L-carnitine] * Sex[F] * Time[Final-Initial]",model term,−0.3655
same,"Total Body Mass, mixed model Estimate, term Treatment[L-carnitine] * Time[Final-Initial]",model term,−0.8724

# Reference: patent US10016382B2, “Method for decreasing skeletal muscle damage and/or oxidative stress in mammals” (LONZA INC., priority 2014, dated 2018)
